The target in assay [1] is T1, Bone morphogenetic protein receptor type-2 (Homo sapiens) (UniProt Q13873).
T1 sequence (whole entry): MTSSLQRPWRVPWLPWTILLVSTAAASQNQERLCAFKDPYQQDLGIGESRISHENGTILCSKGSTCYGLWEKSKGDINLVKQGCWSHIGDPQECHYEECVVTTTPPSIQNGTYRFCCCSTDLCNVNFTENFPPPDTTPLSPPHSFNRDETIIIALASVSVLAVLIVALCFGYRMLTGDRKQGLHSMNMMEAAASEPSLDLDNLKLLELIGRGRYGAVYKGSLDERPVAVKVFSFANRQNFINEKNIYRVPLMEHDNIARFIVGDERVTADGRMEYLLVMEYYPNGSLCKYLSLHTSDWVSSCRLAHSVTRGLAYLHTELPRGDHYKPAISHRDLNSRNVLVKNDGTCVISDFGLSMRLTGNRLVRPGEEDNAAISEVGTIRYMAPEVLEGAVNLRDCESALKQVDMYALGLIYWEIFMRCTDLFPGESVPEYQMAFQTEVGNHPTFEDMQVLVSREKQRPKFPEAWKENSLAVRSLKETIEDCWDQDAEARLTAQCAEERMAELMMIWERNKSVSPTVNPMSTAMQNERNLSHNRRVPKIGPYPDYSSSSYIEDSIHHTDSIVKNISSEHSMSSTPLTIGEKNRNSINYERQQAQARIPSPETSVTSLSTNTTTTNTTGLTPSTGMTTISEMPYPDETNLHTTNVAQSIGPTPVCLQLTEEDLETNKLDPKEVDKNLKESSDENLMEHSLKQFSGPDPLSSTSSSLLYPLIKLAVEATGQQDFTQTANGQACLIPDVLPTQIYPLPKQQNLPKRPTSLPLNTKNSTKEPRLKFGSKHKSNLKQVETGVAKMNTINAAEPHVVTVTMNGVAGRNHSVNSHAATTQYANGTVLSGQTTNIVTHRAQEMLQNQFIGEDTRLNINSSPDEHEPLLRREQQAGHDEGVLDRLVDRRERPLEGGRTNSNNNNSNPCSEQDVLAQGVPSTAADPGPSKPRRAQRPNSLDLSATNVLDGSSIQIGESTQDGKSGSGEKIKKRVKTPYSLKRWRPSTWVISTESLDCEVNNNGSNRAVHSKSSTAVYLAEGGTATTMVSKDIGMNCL
The assay is described as follows: Inhibition of human recombinant BMPR2 at 40 nM related to control ULK1.

In assay [2] the target is Tau-tubulin kinase 2 (Homo sapiens) (UniProt Q6IQ55). The assay is described as follows: Inhibition of human recombinant TTBK2 at 40 nM related to control ULK1.
Tau-tubulin kinase 2 (Homo sapiens), sequence (Q6IQ55 whole entry): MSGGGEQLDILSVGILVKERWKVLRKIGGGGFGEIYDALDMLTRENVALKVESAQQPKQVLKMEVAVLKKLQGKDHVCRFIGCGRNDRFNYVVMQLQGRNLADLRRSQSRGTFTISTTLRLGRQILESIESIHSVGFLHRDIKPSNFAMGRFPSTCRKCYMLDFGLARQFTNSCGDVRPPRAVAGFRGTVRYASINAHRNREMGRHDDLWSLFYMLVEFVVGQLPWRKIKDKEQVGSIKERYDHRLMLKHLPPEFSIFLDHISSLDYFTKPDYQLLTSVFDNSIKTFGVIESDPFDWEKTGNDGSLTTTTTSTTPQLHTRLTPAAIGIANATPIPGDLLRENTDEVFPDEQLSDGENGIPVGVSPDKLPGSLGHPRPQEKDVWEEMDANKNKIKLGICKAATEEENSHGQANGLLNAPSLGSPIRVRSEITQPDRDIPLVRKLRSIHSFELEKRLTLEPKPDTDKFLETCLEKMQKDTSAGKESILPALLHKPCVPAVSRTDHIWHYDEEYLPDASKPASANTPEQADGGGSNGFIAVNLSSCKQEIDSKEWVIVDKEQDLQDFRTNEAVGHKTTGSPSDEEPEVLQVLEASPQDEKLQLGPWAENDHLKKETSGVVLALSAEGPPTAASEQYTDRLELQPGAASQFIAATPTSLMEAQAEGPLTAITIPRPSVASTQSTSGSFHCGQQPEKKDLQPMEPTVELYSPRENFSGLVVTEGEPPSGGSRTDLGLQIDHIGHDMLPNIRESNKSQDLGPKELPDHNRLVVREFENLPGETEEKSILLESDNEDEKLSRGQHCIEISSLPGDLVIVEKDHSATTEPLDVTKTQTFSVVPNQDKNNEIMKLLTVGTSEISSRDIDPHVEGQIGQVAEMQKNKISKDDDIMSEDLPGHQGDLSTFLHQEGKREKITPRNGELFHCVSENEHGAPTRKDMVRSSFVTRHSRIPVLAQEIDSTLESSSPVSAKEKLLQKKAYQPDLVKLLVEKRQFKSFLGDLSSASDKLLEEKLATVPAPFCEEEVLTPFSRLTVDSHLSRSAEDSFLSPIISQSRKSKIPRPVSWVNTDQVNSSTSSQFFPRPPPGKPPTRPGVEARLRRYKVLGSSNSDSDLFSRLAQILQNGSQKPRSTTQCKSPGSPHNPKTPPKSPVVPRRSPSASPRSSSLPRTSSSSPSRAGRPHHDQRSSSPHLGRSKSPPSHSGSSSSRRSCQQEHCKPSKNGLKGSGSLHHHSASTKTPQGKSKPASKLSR
Assay [3] has as its target Cyclin-dependent kinase-like 3 (Homo sapiens) (UniProt Q8IVW4). The assay is described as follows: Inhibition of human recombinant CDKL3 at 40 nM related to control ULK1.
Assay [4] has as its target T2, Ephrin type-A receptor 1 (Homo sapiens) (UniProt P21709).
T2 sequence (whole entry): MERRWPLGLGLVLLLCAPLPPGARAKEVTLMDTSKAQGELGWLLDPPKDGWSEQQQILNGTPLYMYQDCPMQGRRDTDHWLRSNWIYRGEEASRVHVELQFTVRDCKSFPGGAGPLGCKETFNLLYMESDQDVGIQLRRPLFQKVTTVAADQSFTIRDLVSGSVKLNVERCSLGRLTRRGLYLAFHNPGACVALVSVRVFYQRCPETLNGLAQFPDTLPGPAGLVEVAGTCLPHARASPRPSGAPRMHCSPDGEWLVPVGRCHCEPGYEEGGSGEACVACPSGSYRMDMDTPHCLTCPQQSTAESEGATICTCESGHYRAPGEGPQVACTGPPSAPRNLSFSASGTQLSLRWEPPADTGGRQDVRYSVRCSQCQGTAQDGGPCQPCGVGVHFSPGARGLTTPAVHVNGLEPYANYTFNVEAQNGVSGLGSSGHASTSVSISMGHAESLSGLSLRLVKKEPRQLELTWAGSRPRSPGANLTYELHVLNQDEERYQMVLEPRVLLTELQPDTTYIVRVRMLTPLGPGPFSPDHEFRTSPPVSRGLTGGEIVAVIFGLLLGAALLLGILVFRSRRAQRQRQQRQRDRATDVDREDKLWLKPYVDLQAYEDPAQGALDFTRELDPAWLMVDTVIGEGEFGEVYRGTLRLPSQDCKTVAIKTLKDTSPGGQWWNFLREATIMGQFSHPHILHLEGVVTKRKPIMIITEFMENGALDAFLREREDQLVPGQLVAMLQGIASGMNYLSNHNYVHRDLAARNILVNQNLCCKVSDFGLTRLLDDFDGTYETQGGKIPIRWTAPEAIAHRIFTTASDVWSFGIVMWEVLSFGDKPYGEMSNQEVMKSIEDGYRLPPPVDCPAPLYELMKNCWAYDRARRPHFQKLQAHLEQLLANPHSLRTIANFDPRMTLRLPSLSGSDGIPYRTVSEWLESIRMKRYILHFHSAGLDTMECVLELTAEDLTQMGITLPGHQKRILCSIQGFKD
The assay is described as follows: Inhibition of human recombinant EphA1 at 500 nM in presence of ATP by radiometric assay relative to control.

The target of assay [5] is T3, TGF-beta receptor type-1 (Homo sapiens) (UniProt P36897).
T3 sequence (whole entry): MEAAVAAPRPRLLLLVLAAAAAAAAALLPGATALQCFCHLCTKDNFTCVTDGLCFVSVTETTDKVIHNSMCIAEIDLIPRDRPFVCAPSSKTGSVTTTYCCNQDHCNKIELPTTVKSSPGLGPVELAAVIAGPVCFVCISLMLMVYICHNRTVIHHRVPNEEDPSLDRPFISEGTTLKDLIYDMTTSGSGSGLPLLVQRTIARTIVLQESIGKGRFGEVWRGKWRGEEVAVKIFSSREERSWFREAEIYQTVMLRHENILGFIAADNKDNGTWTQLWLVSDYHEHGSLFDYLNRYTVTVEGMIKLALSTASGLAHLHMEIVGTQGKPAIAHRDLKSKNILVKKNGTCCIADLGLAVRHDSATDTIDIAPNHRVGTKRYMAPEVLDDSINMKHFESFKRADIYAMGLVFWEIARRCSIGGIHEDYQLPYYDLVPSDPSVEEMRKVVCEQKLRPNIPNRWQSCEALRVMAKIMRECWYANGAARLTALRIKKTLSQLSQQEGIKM
The assay is described as follows: Inhibition of human recombinant TGFbR1 at 500 nM related to control ULK1.

For assay [6], the target named is Cyclin-dependent kinase 4 (Homo sapiens) (UniProt P11802). The assay is described as follows: Inhibition of human recombinant CDK4 at 15 nM related to control ULK1.
Cyclin-dependent kinase 4 (Homo sapiens), sequence (P11802 whole entry): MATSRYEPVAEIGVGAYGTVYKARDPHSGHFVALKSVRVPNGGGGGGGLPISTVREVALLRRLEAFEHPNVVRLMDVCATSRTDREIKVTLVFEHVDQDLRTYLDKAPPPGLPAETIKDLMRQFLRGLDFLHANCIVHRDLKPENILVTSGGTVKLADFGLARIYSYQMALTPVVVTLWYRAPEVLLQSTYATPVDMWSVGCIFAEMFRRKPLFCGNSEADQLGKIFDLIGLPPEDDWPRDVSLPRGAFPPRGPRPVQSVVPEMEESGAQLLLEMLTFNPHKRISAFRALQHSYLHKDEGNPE
In assay [7] the target is Proto-oncogene tyrosine-protein kinase ROS (Homo sapiens) (UniProt P08922). The assay is described as follows: Inhibition of human recombinant ROS at 15 nM related to control ULK1.
Proto-oncogene tyrosine-protein kinase ROS (Homo sapiens), sequence (P08922 whole entry): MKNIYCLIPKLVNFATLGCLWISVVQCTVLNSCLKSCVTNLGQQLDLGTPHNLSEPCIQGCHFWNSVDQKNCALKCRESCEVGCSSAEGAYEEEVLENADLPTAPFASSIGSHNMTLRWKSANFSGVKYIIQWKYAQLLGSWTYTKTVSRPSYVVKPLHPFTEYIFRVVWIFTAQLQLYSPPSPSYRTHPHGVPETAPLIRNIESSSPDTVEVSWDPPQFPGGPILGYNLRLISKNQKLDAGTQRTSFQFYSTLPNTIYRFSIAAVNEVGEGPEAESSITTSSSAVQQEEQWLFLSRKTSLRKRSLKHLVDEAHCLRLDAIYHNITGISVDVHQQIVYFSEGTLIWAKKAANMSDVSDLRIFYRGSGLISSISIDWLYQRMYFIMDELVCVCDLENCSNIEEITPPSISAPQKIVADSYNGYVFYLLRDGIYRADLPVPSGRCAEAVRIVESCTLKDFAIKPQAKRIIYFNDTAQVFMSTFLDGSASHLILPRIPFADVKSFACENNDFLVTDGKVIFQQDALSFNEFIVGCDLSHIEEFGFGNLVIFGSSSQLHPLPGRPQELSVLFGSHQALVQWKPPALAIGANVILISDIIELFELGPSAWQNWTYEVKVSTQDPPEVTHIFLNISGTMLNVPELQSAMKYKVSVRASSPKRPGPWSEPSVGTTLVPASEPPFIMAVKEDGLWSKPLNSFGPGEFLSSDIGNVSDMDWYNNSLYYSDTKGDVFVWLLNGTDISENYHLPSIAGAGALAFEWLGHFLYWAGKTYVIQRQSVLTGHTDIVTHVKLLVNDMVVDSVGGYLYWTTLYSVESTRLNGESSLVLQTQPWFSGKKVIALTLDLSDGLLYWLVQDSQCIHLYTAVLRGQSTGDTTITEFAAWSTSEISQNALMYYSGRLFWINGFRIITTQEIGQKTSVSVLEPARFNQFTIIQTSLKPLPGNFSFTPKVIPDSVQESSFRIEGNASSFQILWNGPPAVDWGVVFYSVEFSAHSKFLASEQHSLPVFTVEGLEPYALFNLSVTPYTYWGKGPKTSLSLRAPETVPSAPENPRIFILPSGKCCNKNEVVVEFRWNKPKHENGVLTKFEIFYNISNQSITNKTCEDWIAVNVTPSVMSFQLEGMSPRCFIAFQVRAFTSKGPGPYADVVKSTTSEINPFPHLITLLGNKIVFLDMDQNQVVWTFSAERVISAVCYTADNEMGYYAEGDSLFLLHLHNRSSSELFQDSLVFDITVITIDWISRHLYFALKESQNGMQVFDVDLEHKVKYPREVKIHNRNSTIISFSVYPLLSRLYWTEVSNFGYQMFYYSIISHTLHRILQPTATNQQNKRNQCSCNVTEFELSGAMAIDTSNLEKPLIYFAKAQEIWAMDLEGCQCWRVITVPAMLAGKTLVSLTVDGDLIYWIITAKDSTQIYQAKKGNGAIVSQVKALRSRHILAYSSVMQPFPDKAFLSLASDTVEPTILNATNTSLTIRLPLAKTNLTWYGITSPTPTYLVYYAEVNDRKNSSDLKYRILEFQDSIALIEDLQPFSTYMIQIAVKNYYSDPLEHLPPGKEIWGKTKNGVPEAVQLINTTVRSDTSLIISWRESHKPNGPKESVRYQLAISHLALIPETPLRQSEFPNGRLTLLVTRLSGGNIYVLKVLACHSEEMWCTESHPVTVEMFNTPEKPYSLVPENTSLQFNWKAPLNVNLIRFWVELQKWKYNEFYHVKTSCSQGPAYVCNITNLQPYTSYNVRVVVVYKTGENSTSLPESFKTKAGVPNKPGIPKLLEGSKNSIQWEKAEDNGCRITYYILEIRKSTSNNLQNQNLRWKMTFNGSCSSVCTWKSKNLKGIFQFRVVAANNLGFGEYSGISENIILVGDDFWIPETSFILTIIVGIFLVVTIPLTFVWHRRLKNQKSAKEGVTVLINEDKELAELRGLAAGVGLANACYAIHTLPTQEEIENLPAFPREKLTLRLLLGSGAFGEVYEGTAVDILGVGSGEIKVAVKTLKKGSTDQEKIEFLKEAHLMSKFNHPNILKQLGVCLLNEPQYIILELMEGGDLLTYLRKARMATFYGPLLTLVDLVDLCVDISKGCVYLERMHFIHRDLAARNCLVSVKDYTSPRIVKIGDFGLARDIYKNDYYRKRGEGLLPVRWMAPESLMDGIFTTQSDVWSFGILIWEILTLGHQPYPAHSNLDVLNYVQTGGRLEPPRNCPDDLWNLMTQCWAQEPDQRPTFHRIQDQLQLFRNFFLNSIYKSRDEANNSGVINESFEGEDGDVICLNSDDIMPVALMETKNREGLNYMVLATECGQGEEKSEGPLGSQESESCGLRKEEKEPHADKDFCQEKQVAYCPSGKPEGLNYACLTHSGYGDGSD
In assay [8] the target is Tyrosine-protein kinase CSK (Homo sapiens) (UniProt P41240). The assay is described as follows: Inhibition of human recombinant CSK at 15 nM in presence of ATP by radiometric assay relative to control.
Tyrosine-protein kinase CSK (Homo sapiens), sequence (P41240 2-450 limits assumed): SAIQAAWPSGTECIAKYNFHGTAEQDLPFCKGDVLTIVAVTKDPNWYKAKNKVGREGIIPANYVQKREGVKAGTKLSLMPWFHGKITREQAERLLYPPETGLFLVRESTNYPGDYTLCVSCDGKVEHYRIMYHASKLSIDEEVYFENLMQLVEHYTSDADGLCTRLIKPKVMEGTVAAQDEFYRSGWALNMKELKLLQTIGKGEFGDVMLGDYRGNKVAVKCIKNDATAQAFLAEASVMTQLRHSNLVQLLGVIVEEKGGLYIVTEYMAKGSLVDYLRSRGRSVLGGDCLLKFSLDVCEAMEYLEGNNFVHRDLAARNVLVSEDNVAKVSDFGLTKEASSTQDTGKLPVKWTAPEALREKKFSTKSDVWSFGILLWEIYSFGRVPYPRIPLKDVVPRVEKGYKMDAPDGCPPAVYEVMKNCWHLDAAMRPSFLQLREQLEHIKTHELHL

Cyclin-dependent kinase-like 3 (Homo sapiens), sequence (Q8IVW4 whole entry, looked up): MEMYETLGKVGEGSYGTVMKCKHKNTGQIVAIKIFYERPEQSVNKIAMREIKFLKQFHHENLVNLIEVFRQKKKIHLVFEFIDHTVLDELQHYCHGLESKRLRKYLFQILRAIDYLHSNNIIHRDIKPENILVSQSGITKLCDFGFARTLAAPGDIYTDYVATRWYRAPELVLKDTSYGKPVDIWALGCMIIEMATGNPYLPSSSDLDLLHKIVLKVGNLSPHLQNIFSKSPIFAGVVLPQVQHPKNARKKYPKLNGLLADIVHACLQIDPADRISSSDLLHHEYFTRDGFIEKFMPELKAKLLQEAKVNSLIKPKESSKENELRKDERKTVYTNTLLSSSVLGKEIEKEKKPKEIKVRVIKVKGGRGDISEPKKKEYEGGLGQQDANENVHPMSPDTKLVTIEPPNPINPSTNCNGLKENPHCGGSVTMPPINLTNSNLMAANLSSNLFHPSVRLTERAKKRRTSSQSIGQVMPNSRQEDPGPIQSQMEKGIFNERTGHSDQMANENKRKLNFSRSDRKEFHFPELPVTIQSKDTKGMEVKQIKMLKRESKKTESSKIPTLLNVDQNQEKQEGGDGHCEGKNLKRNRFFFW

On to `O=C(N[C@@H](C1CC1)C(F)(F)F)c1cc(-c2cnn3cc(-c4ccc(F)cc4)cnc23)cs1`, for which the fold change (FC) in assay [1] worked out at 0.08; in assay [2] it was 0; in assay [3] it was 0.53.

Consider `CNC(=O)c1ccccc1Oc1nc(Nc2cc(OC)c(OC)c(OC)c2)ncc1Br`, for which the inhibition in assay [4] came out at 13%. Besides, the fold change (FC) in assay [5] came out at 0.

For `CC(C)[C@H](NC(=O)c1cc(-c2cnn3cc(-c4ccc(OCCN5CCCCC5)cc4)cnc23)cs1)C(F)(F)F`, the figures for the fold change (FC) in assay [6] and in assay [7] were 0.13 and 0, respectively. For the same compound, the inhibition in assay [8] is 12%.

The record behind these values is ChEMBL document CHEMBL5653631, “A Potent and Selective ULK1 Inhibitor Suppresses Autophagy and Sensitizes Cancer Cells to Nutrient Stress” (iScience, 2018).
